ChEMBL document CHEMBL1165992, “A statistical analysis of in vitro human microsomal metabolic stability of small phenyl group substituents, leading to improved design sets for parallel SAR exploration of a chemical series” (Bioorg Med Chem, 2010)

How the values were obtained:
in vitro = conditions: human
Description: Intrinsic clearance in human liver microsomes assessed per mg of microsomal protein at 0.2 to 1 uM after 30 mins by HPLC analysis

[1] = target: 11-beta-hydroxysteroid dehydrogenase 1 (Homo sapiens, UniProt P28845); experiment: Inhibition of human 11beta-HSD1 by competitive binding assay
Sequence of 11-beta-hydroxysteroid dehydrogenase 1 (P28845 whole entry): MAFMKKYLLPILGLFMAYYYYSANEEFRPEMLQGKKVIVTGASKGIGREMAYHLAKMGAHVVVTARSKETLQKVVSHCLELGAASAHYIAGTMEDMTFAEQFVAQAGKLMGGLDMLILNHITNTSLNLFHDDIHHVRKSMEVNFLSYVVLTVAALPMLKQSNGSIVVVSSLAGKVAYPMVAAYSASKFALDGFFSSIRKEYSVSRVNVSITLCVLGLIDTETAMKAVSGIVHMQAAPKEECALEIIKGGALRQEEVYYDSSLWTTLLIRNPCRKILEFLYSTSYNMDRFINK

O=C(c1ccc(F)cc1)C1CCN(C(=O)c2cccc(F)c2)CC1
microsomal CLint at 0.5 h, 1 µM (in vitro; liver microsomes): 31.9 µL/min/mg

CCN(C(=O)NCc1ccc(S(C)(=O)=O)cc1)C1CCN(CCC(c2ccc(F)cc2)C2CCN(Cc3cccnc3)CC2)CC1 (configuration not stated)
microsomal CLint at 0.5 h, 1 µM (in vitro; liver microsomes): 5 µL/min/mg

CCN(C(=O)NCc1ccc(S(C)(=O)=O)cc1)C1CCN(CCC(c2ccc(F)cc2)C2CCN(Cc3ccc4ccccc4n3)CC2)CC1 (configuration not stated)
microsomal CLint at 0.5 h, 1 µM (in vitro; liver microsomes): 3 µL/min/mg

CCN(C(=O)NCc1ccc(S(C)(=O)=O)cc1)C1CCN(CCC(c2ccccc2)C2CCN(Cc3cccnc3)CC2)CC1 (configuration not stated)
microsomal CLint at 0.5 h, 1 µM (in vitro; liver microsomes): > 150 µL/min/mg

O=C(c1ccc(F)cc1)C1CCN(C(=O)c2ccc(Cl)c(Cl)c2)CC1
microsomal CLint at 0.5 h, 1 µM (in vitro; liver microsomes): 16.5 µL/min/mg

CCN(C(=O)NCc1ccc(F)cc1)C1CCN(CCC(c2ccccc2)c2ccccc2)CC1
microsomal CLint at 0.5 h, 1 µM (in vitro; microsomes): 105 µL/min/mg

CCN(C(=O)NCc1cccc(F)c1)C1CCN(CCC(c2ccccc2)c2ccccc2)CC1
microsomal CLint at 0.5 h, 1 µM (in vitro; liver microsomes): 86 µL/min/mg

CCN(C(=O)NCc1ccccc1F)C1CCN(CCC(c2ccccc2)c2ccccc2)CC1
microsomal CLint at 0.5 h, 1 µM (in vitro; liver microsomes): 74 µL/min/mg

NS(=O)(=O)c1cccc(C(=O)N2CCC(C(=O)c3ccc(F)cc3)CC2)c1
IC50 [1]: > 30 µM
microsomal CLint at 0.5 h, 1 µM (in vitro; liver microsomes): 13 µL/min/mg

O=C(c1ccc(F)cc1)C1CCN(C(=O)c2cccc(C(F)(F)F)c2)CC1
microsomal CLint at 0.5 h, 1 µM (in vitro; liver microsomes): 13.7 µL/min/mg

O=C(c1ccc(F)cc1)C1CCN(C(=O)c2ccc(-c3ccccc3)cc2)CC1
microsomal CLint at 0.5 h, 1 µM (in vitro; liver microsomes): 4.93 µL/min/mg

O=C(c1ccc(F)cc1)C1CCN(C(=O)c2ccc(Cl)cc2Cl)CC1
IC50 [1]: > 30 µM
microsomal CLint at 0.5 h, 1 µM (in vitro; liver microsomes): 41.2 µL/min/mg

O=C(c1ccc(F)cc1)C1CCN(C(=O)c2cccc(Cl)c2)CC1
microsomal CLint at 0.5 h, 1 µM (in vitro; liver microsomes): 22.2 µL/min/mg

O=C(c1ccc(F)cc1)C1CCN(C(=O)c2cc(F)cc(F)c2)CC1
IC50 [1]: > 30 µM
microsomal CLint at 0.5 h, 1 µM (in vitro; liver microsomes): 25.3 µL/min/mg

COc1ccccc1C(=O)N1CCC(C(=O)c2ccc(F)cc2)CC1
IC50 [1]: 23.6 µM
microsomal CLint at 0.5 h, 1 µM (in vitro; liver microsomes): 14.3 µL/min/mg

CS(=O)(=O)c1cccc(C(=O)N2CCC(C(=O)c3ccc(F)cc3)CC2)c1
IC50 [1]: > 30 µM
microsomal CLint at 0.5 h, 1 µM (in vitro; liver microsomes): 11.4 µL/min/mg

COc1cccc(C(=O)N2CCC(C(=O)c3ccc(F)cc3)CC2)c1
microsomal CLint at 0.5 h, 1 µM (in vitro; liver microsomes): 12.9 µL/min/mg

Nc1ccccc1C(=O)N1CCC(C(=O)c2ccc(F)cc2)CC1
microsomal CLint at 0.5 h, 1 µM (in vitro; liver microsomes): 15.6 µL/min/mg

O=C(c1ccc(F)cc1)C1CCN(C(=O)c2ccccc2Cl)CC1
microsomal CLint at 0.5 h, 1 µM (in vitro; liver microsomes): 32.6 µL/min/mg

O=C(c1ccc(F)cc1)C1CCN(C(=O)c2ccccc2)CC1
IC50 [1]: 3.61 µM
microsomal CLint at 0.5 h, 1 µM (in vitro; liver microsomes): 23 µL/min/mg

O=C(c1ccc(F)cc1)C1CCN(C(=O)c2ccccc2OC(F)(F)F)CC1
microsomal CLint at 0.5 h, 1 µM (in vitro; liver microsomes): 16.9 µL/min/mg

O=C(c1ccc(F)cc1)C1CCN(C(=O)c2cccc(Br)c2)CC1
microsomal CLint at 0.5 h, 1 µM (in vitro; liver microsomes): 19.3 µL/min/mg

CCN(C(=O)NCc1c(F)cccc1F)C1CCN(CCC(c2ccccc2)c2ccccc2)CC1
microsomal CLint at 0.5 h, 1 µM (in vitro; liver microsomes): 6 µL/min/mg

CN(C)c1cccc(C(=O)N2CCC(C(=O)c3ccc(F)cc3)CC2)c1
microsomal CLint at 0.5 h, 1 µM (in vitro; liver microsomes): 53.5 µL/min/mg

O=C(c1ccc(F)cc1)C1CCN(C(=O)c2ccc(C(F)(F)F)cc2)CC1
microsomal CLint at 0.5 h, 1 µM (in vitro; liver microsomes): 15.5 µL/min/mg

COc1ccc(C(=O)N2CCC(C(=O)c3ccc(F)cc3)CC2)c(OC)c1
microsomal CLint at 0.5 h, 1 µM (in vitro; liver microsomes): 15.8 µL/min/mg

N#Cc1cccc(C(=O)N2CCC(C(=O)c3ccc(F)cc3)CC2)c1
IC50 [1]: > 30 µM
microsomal CLint at 0.5 h, 1 µM (in vitro; liver microsomes): 14.5 µL/min/mg

COc1ccc(C(=O)N2CCC(C(=O)c3ccc(F)cc3)CC2)cc1
IC50 [1]: 15.8 µM
microsomal CLint at 0.5 h, 1 µM (in vitro; liver microsomes): 22.6 µL/min/mg

O=C(c1ccc(F)cc1)C1CCN(C(=O)c2ccccc2F)CC1
IC50 [1]: 7.44 µM
microsomal CLint at 0.5 h, 1 µM (in vitro; liver microsomes): 46.5 µL/min/mg

O=C(c1ccc(F)cc1)C1CCN(C(=O)c2ccc(N3CCOCC3)cc2)CC1
microsomal CLint at 0.5 h, 1 µM (in vitro; liver microsomes): 15.2 µL/min/mg

Cc1cccc(C(=O)N2CCC(C(=O)c3ccc(F)cc3)CC2)c1
microsomal CLint at 0.5 h, 1 µM (in vitro; liver microsomes): 43.6 µL/min/mg

COc1cccc(C(=O)N2CCC(C(=O)c3ccc(F)cc3)CC2)c1OC
microsomal CLint at 0.5 h, 1 µM (in vitro; liver microsomes): 14.9 µL/min/mg

O=C(c1ccc(F)cc1)C1CCN(C(=O)c2cccc(F)c2F)CC1
IC50 [1]: > 30 µM
microsomal CLint at 0.5 h, 1 µM (in vitro; liver microsomes): 18 µL/min/mg

O=C(c1ccc(F)cc1)C1CCN(C(=O)c2ccc(Cl)c(C(F)(F)F)c2)CC1
microsomal CLint at 0.5 h, 1 µM (in vitro; liver microsomes): 11.5 µL/min/mg

NS(=O)(=O)c1ccc(C(=O)N2CCC(C(=O)c3ccc(F)cc3)CC2)cc1
IC50 [1]: > 30 µM
microsomal CLint at 0.5 h, 1 µM (in vitro; liver microsomes): 12.3 µL/min/mg

O=C(c1ccc(F)cc1)C1CCN(C(=O)c2ccc(F)cc2)CC1
IC50 [1]: 21.8 µM
microsomal CLint at 0.5 h, 1 µM (in vitro; liver microsomes): 17.1 µL/min/mg

CC(=O)c1ccc(C(=O)N2CCC(C(=O)c3ccc(F)cc3)CC2)cc1
microsomal CLint at 0.5 h, 1 µM (in vitro; liver microsomes): 19.8 µL/min/mg

CCN(C(=O)NCc1ccc(S(C)(=O)=O)cc1)C1CCN(CCC(c2ccccc2)C2CCN(Cc3ccc4ccccc4n3)CC2)CC1 (configuration not stated)
microsomal CLint at 0.5 h, 1 µM (in vitro; liver microsomes): > 150 µL/min/mg

CS(=O)(=O)Nc1cccc(C(=O)N2CCC(C(=O)c3ccc(F)cc3)CC2)c1
IC50 [1]: > 30 µM
microsomal CLint at 0.5 h, 1 µM (in vitro; liver microsomes): 9.23 µL/min/mg

Cc1ccc(C(=O)N2CCC(C(=O)c3ccc(F)cc3)CC2)cc1
IC50 [1]: 3.41 µM
microsomal CLint at 0.5 h, 1 µM (in vitro; liver microsomes): 41.8 µL/min/mg

CS(=O)(=O)c1ccc(C(=O)N2CCC(C(=O)c3ccc(F)cc3)CC2)cc1
IC50 [1]: > 30 µM
microsomal CLint at 0.5 h, 1 µM (in vitro; liver microsomes): 12.4 µL/min/mg

Cc1ccccc1C(=O)N1CCC(C(=O)c2ccc(F)cc2)CC1
microsomal CLint at 0.5 h, 1 µM (in vitro; liver microsomes): 23.5 µL/min/mg

O=C(c1ccc(F)cc1)C1CCN(C(=O)c2ccc(OC(F)(F)F)cc2)CC1
microsomal CLint at 0.5 h, 1 µM (in vitro; liver microsomes): 17.9 µL/min/mg

CCN(C(=O)NCc1cc(F)cc(F)c1)C1CCN(CCC(c2ccccc2)c2ccccc2)CC1
microsomal CLint at 0.5 h, 1 µM (in vitro; liver microsomes): < 3 µL/min/mg

Cc1ncc(-c2ccnc(Nc3ccccc3)n2)n1C(C)C
microsomal CLint at 0.5 h, 1 µM (in vitro; liver microsomes): 63.5 µL/min/mg

O=C(c1ccc(F)cc1)C1CCN(C(=O)c2ccc(Cl)cc2)CC1
IC50 [1]: 6.02 µM
microsomal CLint at 0.5 h, 1 µM (in vitro; liver microsomes): 18.6 µL/min/mg

O=C(c1ccc(F)cc1)C1CCN(C(=O)c2cccc(OC(F)(F)F)c2)CC1
microsomal CLint at 0.5 h, 1 µM (in vitro; liver microsomes): 31.8 µL/min/mg

O=C(c1ccc(F)cc1)C1CCN(C(=O)c2ccc(F)cc2Cl)CC1
microsomal CLint at 0.5 h, 1 µM (in vitro; liver microsomes): 18 µL/min/mg

O=C(c1ccc(F)cc1)C1CCN(C(=O)c2ccc(F)c(F)c2)CC1
microsomal CLint at 0.5 h, 1 µM (in vitro; liver microsomes): 12.5 µL/min/mg

N#Cc1ccccc1C(=O)N1CCC(C(=O)c2ccc(F)cc2)CC1
microsomal CLint at 0.5 h, 1 µM (in vitro; liver microsomes): 28.4 µL/min/mg

N#Cc1ccc(C(=O)N2CCC(C(=O)c3ccc(F)cc3)CC2)cc1
IC50 [1]: > 30 µM
microsomal CLint at 0.5 h, 1 µM (in vitro; liver microsomes): 11.7 µL/min/mg

O=C(c1ccc(F)cc1)C1CCN(C(=O)c2cccc([N+](=O)[O-])c2)CC1
microsomal CLint at 0.5 h, 1 µM (in vitro; liver microsomes): 5.3 µL/min/mg

O=C(c1ccc(F)cc1)C1CCN(C(=O)c2ccc([N+](=O)[O-])cc2)CC1
microsomal CLint at 0.5 h, 1 µM (in vitro; liver microsomes): 9 µL/min/mg

O=C(c1ccc(F)cc1)C1CCN(C(=O)c2ccc(Br)cc2)CC1
microsomal CLint at 0.5 h, 1 µM (in vitro; liver microsomes): 22.7 µL/min/mg

CCN(C(=O)NCc1cc(F)ccc1F)C1CCN(CCC(c2ccccc2)c2ccccc2)CC1
microsomal CLint at 0.5 h, 1 µM (in vitro; liver microsomes): < 4 µL/min/mg
